Reference: US20090042993A1, “IDENTIFICATION OF NOVEL POST-TRANSLATIONAL PROTEIN MODIFICATIONS” (priority 2007, published 2009)

Legend:
[1] = system: acetyl-CoA:lysine acetyltransferase activity in ER vesicles; assay: Membrane acetyltransferase activity, in vitro acetylation of BACE1-myc by ER vesicles; type: biochemical, Chinese Hamster; settings: vesicles from control or ceramide-treated cells, 0.2% Triton X-100, 30° C.
Description: Intact vesicles from the endoplasmic reticulum (ER) and the Golgi apparatus were purified on a 10-34% Iodixanol (OptiPrep; Axis-Shield, Norway) continuous gradient as described (Puglielli et al., 2001, Nat. Cell Biol. 3: 905-912). The complete migration of subcellular markers in a typical gradient is shown in Costantini et al., 2006, EMBO J. 25: 1997-2006; Puglielli et al., 2001, Nat. Cell Biol. 3: 905-912. Fractions enriched in ER and Golgi markers (also called ER or Golgi vesicles herein) were separated, pooled together, and resuspended in isotonic/cryogenic buffer (0.25 M sucrose and 10 mM Tris-HCl, pH 7.4) in the presence of protease inhibitors (Roche). Latency of ER and Golgi vesicles was determined with the glucose-6-phosphatase (Clairmont et al., 1992, J. Biol. Chem. 267: 3983-3900) and the sialyl-transferase (Puglielli and Hirschberg, 1999, J. Biol. Chem. 274: 35596-35600) methods, respectively. […]
The reaction was stopped by adding 200 μl of ice-cold buffer and immediate immersion in ice; BACE1 was then immunoprecipitated and counted on a liquid scintillation counter. […]
FIG. 6 illustrates how acetyltransferase and deacetylase activities exist in the lumen of ER and Golgi apparatus, respectively. […] The reaction was stopped by lowering the temperature; BACE1 was then purified again and analyzed on a scintillation liquid counter. […]

AT-1 = AT-1 mRNA by real-time quantitative PCR in SH-SY5Y cells; type: cell-based, human; settings: C6-cer 10 μM
Protocol: FIG. 15(A): SH-SY5Y cells were treated with ceramide (C6-cer; 10 μM) prior to real-time quantitative PCR. Treatment was performed as previously described (Costantini et al., 2007; Costantini et al., 2005; Puglielli et al., 2003). Results are expressed as percent of control (n=5)±S.D. of control (no treatment). Asterisk (*) indicates statistical significance. […] FIG. 15(B): a cDNA library (frontal cortex) of late-onset AD (n=5 different subjects) and age-matched controls (n=5 different subjects) was analyzed by quantitative real-time PCR. Results are expressed as percent of age-matched controls±S.D. Asterisk (*) indicates statistical significance.

[2] = biological target: T1, ER membrane acetyl-CoA transport activity (Cricetulus griseus, UniProt G3H231); assay: Acetyl-CoA transport assay into intact ER vesicles; type: biochemical, Chinese Hamster
T1 sequence (G3H231 1-550): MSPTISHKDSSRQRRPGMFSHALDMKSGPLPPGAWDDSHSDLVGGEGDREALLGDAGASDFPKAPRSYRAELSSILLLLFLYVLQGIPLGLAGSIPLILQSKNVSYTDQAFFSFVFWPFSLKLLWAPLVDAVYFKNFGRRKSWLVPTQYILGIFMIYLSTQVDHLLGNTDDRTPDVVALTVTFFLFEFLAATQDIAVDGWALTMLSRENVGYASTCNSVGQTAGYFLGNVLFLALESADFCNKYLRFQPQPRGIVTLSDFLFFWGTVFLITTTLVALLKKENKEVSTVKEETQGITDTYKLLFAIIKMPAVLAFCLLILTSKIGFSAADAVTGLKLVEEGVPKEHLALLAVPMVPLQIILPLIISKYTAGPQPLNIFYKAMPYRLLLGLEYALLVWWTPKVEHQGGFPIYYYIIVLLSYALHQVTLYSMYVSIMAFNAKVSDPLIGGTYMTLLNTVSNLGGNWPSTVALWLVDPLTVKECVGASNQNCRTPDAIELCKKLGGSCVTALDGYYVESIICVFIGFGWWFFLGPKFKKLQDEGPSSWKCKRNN
Protocol: Intact vesicles from the endoplasmic reticulum (ER) and the Golgi apparatus were purified on a 10-34% Iodixanol (OptiPrep; Axis-Shield, Norway) continuous gradient as described (Puglielli et al., 2001, Nat. Cell Biol. 3: 905-912). […] Fractions enriched in ER and Golgi markers (also called ER or Golgi vesicles herein) were separated, pooled together, and resuspended in isotonic/cryogenic buffer (0.25 M sucrose and 10 mM Tris-HCl, pH 7.4) in the presence of protease inhibitors (Roche). Latency of ER and Golgi vesicles was determined with the glucose-6-phosphatase (Clairmont et al., 1992, J. Biol. Chem. 267: 3983-3900) and the sialyl-transferase (Puglielli and Hirschberg, 1999, J. Biol. Chem. 274: 35596-35600) methods, respectively. The purity of the preparation was further confirmed by assaying the above enzymatic activities, together with transport of CMP-sialic acid.
Briefly, assays were performed in 100 μl final volume (isotonic/cryogenic buffer) using 25 to 50 μg of ER/Golgi vesicles protein. […] After 5 min at 30° C., reactions were stopped by lowering the temperature to 0-4° C. and by adding 100 μl of ice-cold isotonic/cryogenic buffer (described above). […] Pellets were then dissolved in 0.6 mL of NaOH 1 N; after neutralization with 0.2 mL of 4N HCl, samples were counted by scintillation spectrometry. […]
Asterisk (*) indicates statistical significance (n=3) (P<0.0005). FIG. 5(D): transport of CMP-sialic acid into ER and Golgi intact vesicles was measured as described in (A). […] FIG. 5(E): transport of ATP into ER intact vesicles obtained from control and ceramide-treated CHO cells was measured as described in FIG. 5(A). […]
Translocation was measured as described in the Materials and Methods section. […] FIG. 10(E): transport of ATP into ER intact vesicles obtained from control and ceramide-treated CHO cells was measured as described in FIG. 10(A). […]
Results are expressed as percent of control (no CoA; white bar) and are the average±S.D. Asterisk (*) indicates statistical significance. […]

in vitro acetylation of BACE1 by ER membrane vesicles [1]: no apparent difference
increase in the Vmax of acetyl-CoA transport ([2]; ER vesicles from ceramide treated cells vs untreated): ~30%
Km of acetyl-CoA transport ([2]; ER vesicles from ceramide treated cells, Lineweaver-Burk): comparable to untreated cells
SMILES: CCCCCCCCCCCCC/C=C/[C@@H](O)[C@H](CO)NC(=O)CCCCC [ceramide, C6-ceramide]
AT-1 mRNA level (AT-1): upregulated
